Laboratory results taken from the CheMixHub viscosity set.

Assay: xn = mol fraction of the nth substance listed

CCOCCOCCO + O=C1CCCN1
298.15 K, 101 kPa
Conditions	viscosity [mPa·s]
x1 = 0.0021	14.17
x1 = 0.004	14.1
x1 = 0.0086	14
x1 = 0.0117	13.9
x1 = 0.0212	13.57
x1 = 0.0348	13.2
x1 = 0.0525	12.63
x1 = 0.0788	12.03
x1 = 0.108	11.37
x1 = 0.1478	10.61
x1 = 0.1914	9.859
x1 = 0.2318	9.217
x1 = 0.2798	8.602
x1 = 0.3222	8.116
x1 = 0.3673	7.637
x1 = 0.4326	7.009
x1 = 0.4635	6.788
x1 = 0.5199	6.331
x1 = 0.5639	6.038
x1 = 0.6088	5.76
x1 = 0.6756	5.37
x1 = 0.7363	5.074
x1 = 0.7879	4.842
x1 = 0.8388	4.665
x1 = 0.8795	4.494
x1 = 0.9249	4.308
x1 = 0.9572	4.175
x1 = 0.977	4.003
x2 = 0.0069	3.885

ClC(Cl)=C(Cl)Cl + CCCCCCCO
303.15 K, 101 kPa
Conditions	viscosity [mPa·s]
x2 = 0.132	1.08
x2 = 0.2375	1.267
x2 = 0.3539	1.511
x2 = 0.4634	1.807
x2 = 0.5262	2.016
x2 = 0.5927	2.259
x2 = 0.6534	2.548
x2 = 0.7637	3.149
x2 = 0.8512	3.725
x2 = 0.9246	4.255

O=[N+]([O-])c1ccccc1 + CN(C)C=O
viscosity [mPa·s]
Conditions	298.15 K	303.15 K	308.15 K	313.15 K
101.3 kPa, x1 = 0.0953	0.926	0.8671	0.8133	0.7628
101.3 kPa, x1 = 0.1999	1.026	0.9585	0.8949	0.8362
101.3 kPa, x1 = 0.3027	1.129	1.053	0.9803	0.9134
101.3 kPa, x1 = 0.4044	1.231	1.146	1.075	0.9878
101.3 kPa, x1 = 0.504	1.338	1.246	1.154	1.07
101.3 kPa, x1 = 0.6035	1.441	1.332	1.232	1.14
101.3 kPa, x1 = 0.7034	1.543	1.423	1.313	1.214
101.3 kPa, x1 = 0.8011	1.638	1.505	1.389	1.28
101.3 kPa, x1 = 0.8937	1.74	1.595	1.469	1.351
101.33 kPa, x2 = 0.1017	–	1.524	–	1.307
101.33 kPa, x2 = 0.2145	–	1.416	–	1.22
101.33 kPa, x2 = 0.3053	–	1.331	–	–
101.33 kPa, x2 = 0.3083	–	–	–	1.157
101.33 kPa, x2 = 0.404	–	1.246	–	1.091
101.33 kPa, x2 = 0.5021	–	1.165	–	1.023
101.33 kPa, x2 = 0.6003	–	1.085	–	0.952
101.33 kPa, x2 = 0.6968	–	1.002	–	0.884
101.33 kPa, x2 = 0.7975	–	0.917	–	0.809
101.33 kPa, x2 = 0.8975	–	0.826	–	0.738

CC(C)CCl + CCCCO
viscosity [mPa·s], 101.33 kPa
Conditions	x1 = 0.1061	x1 = 0.207	x1 = 0.3058	x1 = 0.4036	x1 = 0.4999	x1 = 0.6059	x1 = 0.7007	x1 = 0.7972	x1 = 0.8971
298.15 K	1.981	1.554	1.233	0.9932	0.8229	0.6801	0.5857	0.515	0.4612
313.15 K	1.395	1.121	0.9144	0.7548	0.6405	0.5441	0.4768	0.4261	0.3888

CCCCCCCC + CCCCCCC
Conditions	viscosity [mPa·s]
293.15 K, 101 kPa, x2 = 0.2	0.511
293.15 K, 101 kPa, x2 = 0.4	0.484
293.15 K, 101 kPa, x2 = 0.6	0.458
293.15 K, 101 kPa, x2 = 0.8	0.433
293.15 K, 101.33 kPa, x2 = 0.07168	0.531
293.15 K, 101.33 kPa, x2 = 0.1121	0.525
293.15 K, 101.33 kPa, x2 = 0.1909	0.514
293.15 K, 101.33 kPa, x2 = 0.2852	0.501
293.15 K, 101.33 kPa, x2 = 0.3891	0.487
293.15 K, 101.33 kPa, x2 = 0.4993	0.473
293.15 K, 101.33 kPa, x2 = 0.5985	0.46
293.15 K, 101.33 kPa, x2 = 0.6936	0.448
293.15 K, 101.33 kPa, x2 = 0.7797	0.437
293.15 K, 101.33 kPa, x2 = 0.8967	0.422
293.15 K, 101.33 kPa, x2 = 0.9584	0.414
298.15 K, 101.33 kPa, x2 = 0.1073	0.4942
298.15 K, 101.33 kPa, x2 = 0.2098	0.4774
298.15 K, 101.33 kPa, x2 = 0.406	0.4539
298.15 K, 101.33 kPa, x2 = 0.5089	0.4431
298.15 K, 101.33 kPa, x2 = 0.6081	0.4285
298.15 K, 101.33 kPa, x2 = 0.7052	0.4201
298.15 K, 101.33 kPa, x2 = 0.807	0.4103
298.15 K, 101.33 kPa, x2 = 0.9012	0.3958
303.15 K, 101.33 kPa, x2 = 0.1022	0.469
303.15 K, 101.33 kPa, x2 = 0.199	0.458
303.15 K, 101.33 kPa, x2 = 0.2324	0.454
303.15 K, 101.33 kPa, x2 = 0.3088	0.445
303.15 K, 101.33 kPa, x2 = 0.369	0.438
303.15 K, 101.33 kPa, x2 = 0.5069	0.423
303.15 K, 101.33 kPa, x2 = 0.5644	0.416
303.15 K, 101.33 kPa, x2 = 0.6459	0.407
303.15 K, 101.33 kPa, x2 = 0.7393	0.397
303.15 K, 101.33 kPa, x2 = 0.799	0.391
303.15 K, 101.33 kPa, x2 = 0.9128	0.379
312.75 K, 100 kPa, x1 = 0.2	0.3426
313.15 K, 101 kPa, x2 = 0.2	0.407
313.15 K, 101 kPa, x2 = 0.4	0.387
313.15 K, 101 kPa, x2 = 0.6	0.368
313.15 K, 101 kPa, x2 = 0.8	0.35
313.15 K, 101.33 kPa, x2 = 0.05003	0.426
313.15 K, 101.33 kPa, x2 = 0.09664	0.421
313.15 K, 101.33 kPa, x2 = 0.1716	0.413
313.15 K, 101.33 kPa, x2 = 0.212	0.409
313.15 K, 101.33 kPa, x2 = 0.2687	0.404
313.15 K, 101.33 kPa, x2 = 0.3937	0.392
313.15 K, 101.33 kPa, x2 = 0.4963	0.382
313.15 K, 101.33 kPa, x2 = 0.596	0.372
313.15 K, 101.33 kPa, x2 = 0.6942	0.363
313.15 K, 101.33 kPa, x2 = 0.7937	0.354
313.15 K, 101.33 kPa, x2 = 0.9085	0.343
313.15 K, 101.33 kPa, x2 = 0.9589	0.339

CCCCCCCC + CCCCO
298.15 K, 101.33 kPa
Conditions	viscosity [mPa·s]
x1 = 0.0832	2.013
x1 = 0.1173	1.84
x1 = 0.1519	1.681
x1 = 0.2113	1.443
x1 = 0.304	1.152
x1 = 0.3599	1.017
x1 = 0.4942	0.788
x1 = 0.6053	0.676
x1 = 0.7044	0.615
x1 = 0.8459	0.555

CC=Cc1ccc(O)c(OC)c1 + CCCCCOC(C)=O
298.15 K, 101 kPa
Conditions	viscosity [mPa·s]
x1 = 0.062	0.92
x1 = 0.119	1.06

CCCCC(C)=O + CC(=O)CC(C)C
298.15 K, 101 kPa
Conditions	viscosity [mPa·s]
x2 = 0.1164	0.581
x2 = 0.2196	0.575
x2 = 0.3357	0.571
x2 = 0.4413	0.566
x2 = 0.5503	0.562
x2 = 0.6632	0.558
x2 = 0.7765	0.553
x2 = 0.8841	0.548

c1ccccc1 + CC#N
101 kPa
Conditions	viscosity [mPa·s]
298.15 K, x2 = 0.0325	0.5825
298.15 K, x2 = 0.0341	0.58
298.15 K, x2 = 0.0416	0.5745
298.15 K, x2 = 0.0854	0.574
298.15 K, x2 = 0.142	0.5155
298.15 K, x2 = 0.2097	0.493
298.15 K, x2 = 0.2578	0.4835
298.15 K, x2 = 0.3076	0.479
298.15 K, x2 = 0.3588	0.459
298.15 K, x2 = 0.4192	0.4365
298.15 K, x2 = 0.4751	0.4295
298.15 K, x2 = 0.5205	0.4045
298.15 K, x2 = 0.5786	0.394
298.15 K, x2 = 0.6344	0.388
298.15 K, x2 = 0.6908	0.375
298.15 K, x2 = 0.7377	0.379
298.15 K, x2 = 0.7901	0.369
298.15 K, x2 = 0.7943	0.3555
298.15 K, x2 = 0.8416	0.3535
298.15 K, x2 = 0.8962	0.3455
298.15 K, x2 = 0.9472	0.3275
308.15 K, x1 = 0.1018	0.3278
308.15 K, x1 = 0.2042	0.3407
308.15 K, x1 = 0.303	0.3576
308.15 K, x1 = 0.4008	0.378
308.15 K, x1 = 0.4892	0.3939
308.15 K, x1 = 0.5921	0.4163
308.15 K, x1 = 0.6906	0.4413
308.15 K, x1 = 0.8017	0.4762
308.15 K, x1 = 0.8951	0.4954
